From patent US9920060B2, “Pyrazolo[3,4-d]pyrimidine compound or salt thereof” (TAIHO PHARMACEUTICAL CO., LTD., priority 2015, dated 2018)
pIC50: −log10 of the molar value.

Key:
[1] = molecular target: purified recombinant human HER2 protein (Homo sapiens (Human), UniProt P04626); experiment: Inhibitory effect on HER2-phosphorylating activity (in vitro); format: biochemical; conditions: ATP 6 uM, substrate peptide 0.5 uM, 25° C. for 40 minutes
Description: Next, the HER2 protein, the substrate peptide (final concentration: 0.5 uM), manganese chloride (final concentration: 10 mM), ATP (final concentration: 6 uM), and the solution of the compound of the present invention in DMSO (final concentration of DMSO: 5%) were added into a buffer solution for kinase reaction (15 mM Tris (pH 7.5), 2 mM dithiothreitol, and 0.01% Tween 20), and the mixture was incubated at 25° C. for 40 minutes for kinase reaction. The reaction was terminated by adding EDTA (final concentration: 30 mM) thereto. Finally, the unphosphorylated substrate peptide (S) and the phosphorylated peptide (P) were separated and detected by microcapillary electrophoresis using LabChip® EZ Reader II (PerkinElmer Inc.).

A431 cells = experiment: Cytostatic activity against EGFR-expressing cell line A431 (CellTiter-Glo); format: cell-based; conditions: EGFR-overexpressing human epithelioid cancer cell line, 3-day culture; read-out: A431 cell growth inhibitory activity IC50 value
From the text: HER2-overexpressing human stomach cancer cell line NCI-N87 cells were suspended in RPMI1640 medium (manufactured by Life Technologies Corp.) containing 10% fetal bovine serum. Meanwhile, EGFR-overexpressing highly activated human epithelioid cancer cell line A431 cells were suspended in DMEM, high glucose medium (manufactured by Life Technologies Corp.) containing 10% fetal bovine serum. Subsequently, each cell suspension was inoculated to each well of a 384-well flat-bottom microplate and cultured at 37° C. for 1 day in an incubator containing 5% carbon dioxide. The compound of the present invention or Comparative Example compound 1 was dissolved in DMSO, and the test compound was diluted into a concentration of 500 times the final concentration using DMSO. The solution of the test compound in DMSO was diluted with the medium used in the suspension of each cell line, and this solution was added at a final concentration of DMSO of 0.2% to each well of the cell culture plate, followed by further culture at 37° C. for 3 days in an incubator containing 5% carbon dioxide.
Rate of growth inhibition (%)=(C−T)/(C)×100 T: Luminescence intensity of a well supplemented with the test compound C: Luminescence intensity of a well not supplemented with the test compound

purified recombinant human HER2 protein, sequence (P04626 23-1255): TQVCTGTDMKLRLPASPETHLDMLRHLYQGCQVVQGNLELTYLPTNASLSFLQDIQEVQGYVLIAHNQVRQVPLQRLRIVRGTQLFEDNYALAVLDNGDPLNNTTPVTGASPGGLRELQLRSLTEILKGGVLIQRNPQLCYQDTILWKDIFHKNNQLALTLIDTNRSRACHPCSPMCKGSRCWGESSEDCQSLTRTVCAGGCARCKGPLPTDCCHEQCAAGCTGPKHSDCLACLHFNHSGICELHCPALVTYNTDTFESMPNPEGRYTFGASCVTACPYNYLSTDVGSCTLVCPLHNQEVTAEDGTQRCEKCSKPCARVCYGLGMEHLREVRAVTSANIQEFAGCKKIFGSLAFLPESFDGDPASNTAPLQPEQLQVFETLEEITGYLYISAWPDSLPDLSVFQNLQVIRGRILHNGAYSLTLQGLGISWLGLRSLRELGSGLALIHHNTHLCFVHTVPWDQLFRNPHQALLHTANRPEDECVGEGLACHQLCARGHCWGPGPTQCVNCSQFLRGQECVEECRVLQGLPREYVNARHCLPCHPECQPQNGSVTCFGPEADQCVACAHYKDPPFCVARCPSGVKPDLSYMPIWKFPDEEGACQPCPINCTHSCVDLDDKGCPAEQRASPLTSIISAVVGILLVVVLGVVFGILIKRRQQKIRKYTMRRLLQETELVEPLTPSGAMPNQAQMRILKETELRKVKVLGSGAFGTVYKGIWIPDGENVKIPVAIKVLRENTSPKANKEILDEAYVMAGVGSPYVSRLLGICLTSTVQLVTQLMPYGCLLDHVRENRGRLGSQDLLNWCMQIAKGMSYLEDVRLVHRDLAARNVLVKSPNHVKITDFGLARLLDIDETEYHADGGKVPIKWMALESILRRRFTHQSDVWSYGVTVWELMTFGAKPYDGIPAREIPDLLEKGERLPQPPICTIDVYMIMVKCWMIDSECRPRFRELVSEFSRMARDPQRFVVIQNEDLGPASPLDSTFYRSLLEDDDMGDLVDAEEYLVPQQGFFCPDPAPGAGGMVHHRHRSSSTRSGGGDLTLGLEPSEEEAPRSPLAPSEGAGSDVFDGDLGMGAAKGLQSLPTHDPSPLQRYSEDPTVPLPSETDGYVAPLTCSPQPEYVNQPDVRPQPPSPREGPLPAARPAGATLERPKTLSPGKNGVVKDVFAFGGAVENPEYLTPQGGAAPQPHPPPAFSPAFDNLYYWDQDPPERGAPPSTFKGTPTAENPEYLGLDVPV

Row | Compound | pIC50 [1] | pIC50 (A431 cells)
1 | C=CC(=O)N1CCC[C@@H](n2nc(C(=O)Nc3ccc(CC(=O)N(C)C)c4ccccc34)c3c(N)ncnc32)C1 [Example 5, (R)-1-(1-acryloylpiperidin-3-yl)-4-amino-N-(4-(2-(dimethylamino)-2-oxoethyl)naphthalen-1-yl)-1H-pyrazolo[3,4-d]pyrimidine-3-carboxamide] | 7.96 | 
2 | C=CC(=O)N1CCC[C@@H](n2nc(C(=O)Nc3ccc(CC(=O)N(C)C)c(C)c3C)c3c(N)ncnc32)C1 [Example 13, (R)-1-(1-acryloylpiperidin-3-yl)-4-amino-N-(4-(2-(dimethylamino)-2-oxoethyl)-2,3-dimethylphenyl)-1H-pyrazolo[3,4-d]pyrimidine-3-carboxamide] | 7.89 | 
3 | C=CC(=O)N1CCC[C@@H](n2nc(C(=O)Nc3ccc(OC(=O)N(C)C)cc3)c3c(N)ncnc32)C1 [Example 21, (R)-4-(1-(1-acryloylpiperidin-3-yl)-4-amino-1H-pyrazolo[3,4-d]pyrimidine-3-carboxamido)phenyldimethyl carbamate] | 7.59 | 
4 | C=CC(=O)N1CCC[C@@H](n2nc(C(=O)Nc3ccc(CC(=O)N(C)C)cc3F)c3c(N)ncnc32)C1 [Example 25, (R)-1-(1-acryloylpiperidin-3-yl)-4-amino-N-(4-(2-(dimethylamino)-2-oxoethyl)-2-fluorophenyl)-1H-pyrazolo[3,4-d]pyrimidine-3-carboxamide] | 7.68 | 
5 | C=CC(=O)N1CCC[C@@H](n2nc(C(=O)Nc3cc(C)c(CC(=O)N(C)C)cc3C)c3c(N)ncnc32)C1 [Example 39, (R)-1-(1-acryloylpiperidin-3-yl)-4-amino-N-(4-(2-(dimethylamino)-2-oxoethyl)-2,5-dimethylphenyl)-1H-pyrazolo[3,4-d]pyrimidine-3-carboxamide] | 7.66 | 
6 | C=CC(=O)N1CCC[C@@H](n2nc(C(=O)Nc3ccc(CC(=O)N4CCCC4)cc3C)c3c(N)ncnc32)C1 [Example 71, (R)-1-(1-acryloylpiperidin-3-yl)-4-amino-N-(2-methyl-4-(2-oxo-2-(pyrrolidin-1-yl)ethyl)phenyl)-1H-pyrazolo[3,4-d]pyrimidine-3-carboxamide] | 7.96 | 
7 | C=CC(=O)N1CCC[C@@H](n2nc(C(=O)Nc3ccc(CC(=O)N4CC(O)C4)cc3C)c3c(N)ncnc32)C1 [Example 73, (R)-1-(1-acryloylpiperidin-3-yl)-4-amino-N-(4-(2-(3-hydroxyazetidin-1-yl)-2-oxoethyl)-2-methylphenyl)-1H-pyrazolo[3,4-d]pyrimidine-3-carboxamide] | 7.13 | 
8 | C=CC(=O)N1CCC[C@@H](n2nc(C(=O)Nc3ccc(NC(=O)N(C)C)cc3C)c3c(N)ncnc32)C1 [Example 74, (R)-1-(1-acryloylpiperidin-3-yl)-4-amino-N-(4-(3,3-dimethylureido)-2-methylphenyl)-1H-pyrazolo[3,4-d]pyrimidine-3-carboxamide] | 7.77 | 
9 | C=CC(=O)N1CCC[C@@H](n2nc(C(=O)Nc3ccc(NC(=O)N4CCCC4)cc3C)c3c(N)ncnc32)C1 [Example 75, (R)-1-(1-acryloylpiperidin-3-yl)-4-amino-N-(2-methyl-4-(pyrrolidine-1-carboxamido)phenyl)-1H-pyrazolo[3,4-d]pyrimidine-3-carboxamide] | 7.80 | 
10 | C=CC(=O)N1CC(F)C[C@@H](n2nc(C(=O)Nc3ccc(CC(=O)N(C)C)cc3Cl)c3c(N)ncnc32)C1 (stereo partly drawn) [Example 76, 1-((3R)-1-acryloyl-5-fluoropiperidin-3-yl)-4-amino-N-(2-chloro-4-(2-(dimethylamino)-2-oxoethyl)phenyl)-1H-pyrazolo[3,4-d]pyrimidine-3-carboxamide] | 8.30 | 
11 | C=CC(=O)N1CC(F)C[C@@H](n2nc(C(=O)Nc3ccc(CC(=O)N(C)C)c(C)c3C)c3c(N)ncnc32)C1 (stereo partly drawn) [Example 77, 1-((3R)-1-acryloyl-5-fluoropiperidin-3-yl)-4-amino-N-(4-(2-(dimethylamino)-2-oxoethyl)-2,3-dimethylphenyl)-1H-pyrazolo[3,4-d]pyrimidine-3-carboxamide] | 7.89 | 
12 | (R,E)-4-(4-amino-1-(1-(4-dimethylamino)but-2-enoyl)piperidin-3-yl)-1H-pyrazolo[3,4-d]pyrimidine-3-carboxamido)naphthalen-1-yl dimethylcarbamate [Example 66] |  | 5.22
